Data taken from patent US5294611A, “Angiotensin II receptor blocking 2,3,6 substituted quinazolinones” (American Cyanamid Company, priority 1993, dated 1994).
Where two headings read alike, the source gives them in different places.

Tested on: Angiotensin II (AII) vasopressor response
Test: AII Challenge: antagonism of angiotensin II vasopressor response in conscious spontaneously hypertensive rats
Type: in vivo, rat (male okamoto-Aoki SHR)
Conditions: for inhibition in vivo at 10 mg/kg / inhibition in vivo at 5 mg/kg: Rattus norvegicus; for inhibition in vivo at 10 mg/kg: iv; for inhibition in vivo at 10 mg/kg / inhibition in vivo at 5 mg/kg / Average Change: SHR n=2; for inhibition in vivo at 5 mg/kg: po, read-out: Inhibition; for Change: single SHR
Excerpt: Conscious Male okamoto-Aoki SHR, 16-20 weeks old, weighing approximately 330 g are purchased from Charles River Labs (Wilmington, Mass.). Conscious rats are restrained in a supine position with elastic tape. The area at the base of the tail is locally anesthetized by subcutaneous infiltration with 2% procaine. […] The cannula is secured, heparinized (1,000 I.U./ml), sealed and the wound is closed. The animals are placed in plastic restraining cages in an upright position. The cannula is attached to a Statham P23Db pressure transducer, and pulsatile blood pressure is recorded to 10-15 minutes with a Gould Brush recorder. […] Angiotensin II (human sequence, Sigma Chem. Co., St. Louis, Mo.) of 0.05 and 0.1 ug/kg i.v. is injected into all rats (predosing response). Then a test compound, vehicle or a known angiotensin II antagonist is administered i.v., i.p. or orally to each set of rats. […] The vasopressor response of angiotensin II is measured for the increase in systolic blood pressure in mmHg.

[1] = 5 mg/kg P.O., AII 0.05 mcg/kg IV, 90 min post dose
[2] = 10 mg/kg I.V., AII 0.05 mcg/kg IV, 30 min post dose
[3] = 10 mg/kg I.V., AII 0.05 mcg/kg IV, 90 min post dose
[4] = 10 mg/kg I.V., AII 0.1 mcg/kg IV, 180 min post dose
[5] = 10 mg/kg I.V., AII dose not given, 120 min post dose

CCCCc1nc2ccc([C@@H]3[C@H]4C(=O)CCC[C@H]4ON3C)cc2c(=O)n1Cc1ccc(-c2ccccc2-c2nnn[nH]2)cc1 (relative stereo) [Example 49]
inhibition in vivo at 10 mg/kg (0.5 h, 10 mg/kg I.V., AII 0.05 mcg/kg IV, 30 min post dose): 100%
inhibition in vivo at 10 mg/kg (0.5 h, 10 mg/kg I.V., AII 0.1 mcg/kg IV, 30 min post dose): 88%
inhibition in vivo at 10 mg/kg (1 h, 10 mg/kg I.V., AII 0.01 mcg/kg IV (so in the source), 60 min post dose): 86%
inhibition in vivo at 10 mg/kg (1 h, 10 mg/kg I.V., AII 0.05 mcg/kg IV, 60 min post dose): 97%
inhibition in vivo at 10 mg/kg (2 h, 10 mg/kg I.V., AII 0.05 mcg/kg IV, 120 min post dose): 86%
inhibition in vivo at 10 mg/kg (2 h, 10 mg/kg I.V., AII dose not given, 120 min post dose): 81%
inhibition in vivo at 10 mg/kg (3 h, 10 mg/kg I.V., AII 0.05 mcg/kg IV, 180 min post dose): 67%
inhibition in vivo at 10 mg/kg (3 h, 10 mg/kg I.V., AII 0.1 mcg/kg IV, 180 min post dose): 63%
inhibition in vivo at 10 mg/kg ([…], 10 mg/kg I.V., AII 0.05 mcg/kg IV, 90 min post dose): 87%
inhibition in vivo at 10 mg/kg ([…], 10 mg/kg I.V., AII 0.1 mcg/kg IV, 90 min post dose): 86%
inhibition in vivo at 5 mg/kg (0.5 h, 5 mg/kg P.O., AII 0.05 mcg/kg IV, 30 min post dose): 37%
inhibition in vivo at 5 mg/kg (0.5 h, 5 mg/kg P.O., AII 0.1 mcg/kg IV, 30 min post dose): 38%
inhibition in vivo at 5 mg/kg (1 h, 5 mg/kg P.O., AII 0.05 mcg/kg IV, 60 min post dose): 59%
inhibition in vivo at 5 mg/kg (1 h, 5 mg/kg P.O., AII 0.1 mcg/kg IV, 60 min post dose): 29%
inhibition in vivo at 5 mg/kg (2 h, 5 mg/kg P.O., AII 0.05 mcg/kg IV, 120 min post dose): 41%
inhibition in vivo at 5 mg/kg (2 h, 5 mg/kg P.O., AII 0.1 mcg/kg IV, 120 min post dose): 55%
inhibition in vivo at 5 mg/kg (3 h, 5 mg/kg P.O., AII 0.05 mcg/kg IV, 180 min post dose): 63%
inhibition in vivo at 5 mg/kg (3 h, 5 mg/kg P.O., AII 0.1 mcg/kg IV, 180 min post dose): 35%
inhibition in vivo at 5 mg/kg (4 h, 5 mg/kg P.O., AII 0.05 mcg/kg IV, 240 min post dose): 34%
inhibition in vivo at 5 mg/kg (4 h, 5 mg/kg P.O., AII 0.1 mcg/kg IV, 240 min post dose): 36%
inhibition in vivo at 5 mg/kg ([…], 5 mg/kg P.O., AII 0.05 mcg/kg IV, 90 min post dose): 56%
inhibition in vivo at 5 mg/kg ([…], 5 mg/kg P.O., AII 0.1 mcg/kg IV, 90 min post dose): 59%
Average Change (5 mg/kg P.O., AII 0.05 mcg/kg IV, 30 min post dose): 21.5 mmHg
Average Change (5 mg/kg P.O., AII 0.05 mcg/kg IV, 60 min post dose): 14 mmHg
Average Change [1]: 15 mmHg
Average Change (5 mg/kg P.O., AII 0.05 mcg/kg IV, 120 min post dose): 20 mmHg
Average Change (5 mg/kg P.O., AII 0.05 mcg/kg IV, 180 min post dose): 12.5 mmHg
Average Change (5 mg/kg P.O., AII 0.05 mcg/kg IV, 240 min post dose): 22.5 mmHg
Average Change (5 mg/kg P.O., AII 0.1 mcg/kg IV, 30 min post dose): 26.5 mmHg
Average Change (5 mg/kg P.O., AII 0.1 mcg/kg IV, 60 min post dose): 30 mmHg
Average Change (5 mg/kg P.O., AII 0.1 mcg/kg IV, 90 min post dose): 17.5 mmHg
Average Change (5 mg/kg P.O., AII 0.1 mcg/kg IV, 120 min post dose): 19 mmHg
Average Change (5 mg/kg P.O., AII 0.1 mcg/kg IV, 180 min post dose): 27.5 mmHg
Average Change (5 mg/kg P.O., AII 0.1 mcg/kg IV, 240 min post dose): 27 mmHg
Average Change (10 mg/kg I.V., AII 0.01 mcg/kg IV (so in the source), 60 min post dose): 7.5 mmHg
Average Change [2]: 0 mmHg
Average Change (10 mg/kg I.V., AII 0.05 mcg/kg IV, 60 min post dose): 1 mmHg
Average Change [3]: 5 mmHg
Average Change (10 mg/kg I.V., AII 0.05 mcg/kg IV, 120 min post dose): 5.5 mmHg
Average Change (10 mg/kg I.V., AII 0.05 mcg/kg IV, 180 min post dose): 12.5 mmHg
Average Change (10 mg/kg I.V., AII 0.1 mcg/kg IV, 30 min post dose): 6.5 mmHg
Average Change (10 mg/kg I.V., AII 0.1 mcg/kg IV, 90 min post dose): 7.5 mmHg
Average Change [4]: 20 mmHg
Average Change [5]: 10 mmHg
Change [1]: 15 mmHg
Change [2]: 0 mmHg
Change [3]: 5 mmHg
Change [4]: 20 mmHg
Change [5]: 10 mmHg
